Reference: patent US20250326713A1, “INHIBITORS OF MsbA AS ANTIBIOTICS, PHARMACEUTICAL COMPOSITIONS, AND USES THEREOF” (priority 2022, published 2025)
Converted amounts (≈) assume the structure as drawn.

tested on: various strains of bacteria; assay: Antimicrobial potency: bacterial growth inhibition by OD600 (Antibacterial assay 1, MITC95); assay type: cell-based, A. baumannii; conditions: Acinetobacter baumannii, 20 h, lowest concentration giving >95% growth inhibition, CAMHB, 18-22 h
Description: The concentrations of compounds required to inhibit the growth of various strains of bacteria were determined in an assay that assessed bacterial growth by measuring optical density at 600 nm (OD600). Test articles were dissolved in 100% DMSO and serially diluted two-fold from their maximal concentration in 100% DMSO. Forty-nine μl of bacterial inoculum (at approx. 2×10^5 cfu/mL in CAMHB) were put into wells of an assay plate. One μl of compound or DMSO was transferred from the source plate to the assay plate. The completed assay plates were then incubated at 35+2degC for 18-22 h. Bacterial growth was measured by reading OD600 on a spectrophotometer. Data analysis calculates the lowest concentration of compound which results in >95% growth inhibition (minimum inhibitory threshold concentration 95%, MITC95).

Row | SMILES | MIC [µM]
1 | O=C(O)c1cc(CN2CC(Oc3ccc(NS(=O)(=O)N4CCOC(c5ccc(F)cc5)C4)c(C(=O)O)c3)C2)ccc1NS(=O)(=O)N1CCOC(c2ccc(F)cc2)C1 (stereo not drawn) [Compound 44, 5-((1-(3-carboxy-4-((2-(4-fluorophenyl)morpholine)-4-sulfonamido)benzyl)azetidin-3-yl)oxy)-2-((2-(4-fluorophenyl)morpholine)-4-sulfonamido)benzoic acid] | 0.391 (≈ 0.33 µg/mL)
2 | O=C(O)c1cc(CN2CC(Oc3ccc(NS(=O)(=O)c4cnn(-c5ccc(Cl)cc5)c4)c(C(=O)O)c3)C2)ccc1NS(=O)(=O)CCCc1ccc(F)cc1 [Compound 42] | 0.0489 (≈ 0.039 µg/mL)
3 | O=C(O)c1cc(CN2CC(Oc3ccc(NS(=O)(=O)CCc4ccc(Cl)cc4)c(C(=O)O)c3)C2)ccc1NS(=O)(=O)CCc1ccc(Cl)cc1 [Compound 79] | 0.0978 (≈ 0.0746 µg/mL)
4 | O=C(O)c1cc(CN[C@H]2C[C@@H](COc3ccc(NS(=O)(=O)c4cnc(-c5ccc(Cl)cc5)s4)c(C(=O)O)c3)C2)ccc1NS(=O)(=O)CCc1ccc(Cl)cc1 [Compound 93] | 0.00611 (≈ 0.00517 µg/mL)
5 | O=C(O)c1cc(CN[C@H]2C[C@@H](COc3ccc(NS(=O)(=O)N4CCOC(c5ccc(F)cc5)C4)c(C(=O)O)c3)C2)ccc1NS(=O)(=O)N1CCOC(c2ccc(F)cc2)C1 (stereo partly drawn) [Compound 95] | 0.0122 (≈ 0.0106 µg/mL)
6 | O=C(O)c1cc(CN[C@H]2C[C@@H](COc3ccc(NS(=O)(=O)c4cnc(-c5ccc(Cl)cc5)s4)c(C(=O)O)c3)C2)ccc1NS(=O)(=O)CCc1ccc(F)cc1 [Compound 90] | 0.00865 (≈ 0.00717 µg/mL)
7 | O=C(O)c1cc(OC[C@H]2CC[C@@H](COc3ccc(NS(=O)(=O)c4ccc(-c5ccc(Cl)cc5)s4)c(C(=O)O)c3)O2)ccc1NS(=O)(=O)c1ccc(-c2ccc(Cl)cc2)s1 [Compound 23] | 0.0346 (≈ 0.0317 µg/mL)
8 | O=C(NCc1ccc(Cl)cc1)C(=O)Nc1ccc(OC2CN(Cc3ccc(NS(=O)(=O)c4cnn(-c5ccc(Cl)cc5)c4)c(C(=O)O)c3)C2)cc1C(=O)O [Compound 58] | 0.0245 (≈ 0.0194 µg/mL)
9 | O=C(O)c1cc(OC[C@H]2C[C@@H](NCc3ccc(NS(=O)(=O)N4CCOC(c5ccc(F)cc5)C4)c(C(=O)O)c3)C2)ccc1NS(=O)(=O)c1cnn(-c2ccc(F)cc2)c1 (stereo partly drawn) [Compound 88] | 0.0122 (≈ 0.0104 µg/mL)
10 | O=C(O)c1cc(COC2CC(OCc3ccc(NS(=O)(=O)c4ccc(-c5ccc(F)cc5)cc4)c(C(=O)O)c3)C2)ccc1NS(=O)(=O)CCc1ccc(Cl)cc1 (stereo not drawn) [Compound 16] | < 0.0488
11 | O=C(O)c1cc(OC2CN(Cc3ccc(NS(=O)(=O)c4ccc(-c5ccc(F)cc5)cc4)c(C(=O)O)c3)C2)ccc1NS(=O)(=O)CCc1ccc(F)cc1 [Compound 83] | 0.0346 (≈ 0.0269 µg/mL)
12 | O=C(O)c1cc(CN2CC(Oc3ccc(NS(=O)(=O)c4coc(-c5ccc(F)cc5)n4)c(C(=O)O)c3)C2)ccc1NS(=O)(=O)c1coc(-c2ccc(F)cc2)n1 [Compound 116] | 0.0978 (≈ 0.079 µg/mL)

Other lines, results leading:

Row | MIC [µM] | SMILES
13 | 0.391 (≈ 0.348 µg/mL) | CC1(Oc2ccc(NS(=O)(=O)N3CCOC(c4ccc(Cl)cc4)C3)c(C(=O)O)c2)CN(Cc2ccc(NS(=O)(=O)N3CCOC(c4ccc(Cl)cc4)C3)c(C(=O)O)c2)C1 (stereo not drawn) [Compound 46]
14 | 0.277 (≈ 0.233 µg/mL) | O=C(O)c1cc(OC2CN(Cc3ccc(NS(=O)(=O)c4cnn(-c5ccc(F)cc5)c4)c(S(=O)(=O)O)c3)C2)ccc1NS(=O)(=O)c1cnn(-c2ccc(F)cc2)c1 [Compound 3, 2-((1-(4-fluorophenyl)-1H-pyrazole)-4-sulfonamido)-5-((1-(4-((1-(4-fluorophenyl)-1H-pyrazole)-4-sulfonamido)-3-sulfobenzyl)azetidin-3-yl)oxy)benzoic acid]
15 | 0.196 (≈ 0.163 µg/mL) | O=C(O)c1cc(NCC2CC(NCc3ccc(NS(=O)(=O)c4cnn(-c5ccc(F)cc5)n4)c(C(=O)O)c3)C2)ccc1NS(=O)(=O)c1cnn(-c2ccc(F)cc2)c1 (stereo not drawn) [Compound 31]
16 | 0.0978 (≈ 0.084 µg/mL) | O=C(O)c1cc(CN2CC(Oc3ccc(NS(=O)(=O)c4ccc(-c5ccc(Cl)cc5)cc4)c(C(=O)O)c3)C2)ccc1NS(=O)(=O)c1ccc(-c2ccc(Cl)cc2)cc1 [Compound 97, 5-((1-(3-carboxy-4-((4′-chloro-(1,l′-biphenyl))-4-sulfonamido)benzyl)azetidin-3-yl)oxy)-2-((4′-chloro-(1,l′-biphenyl))-4-sulfonamido)benzoic acid]
17 | 0.0489 (≈ 0.0422 µg/mL) | Cn1nc(-c2ccc(F)cc2)cc1S(=O)(=O)Nc1ccc(CNC2CC(CNc3ccc(NS(=O)(=O)c4cnn(-c5ccc(Cl)cc5)c4)c(C(=O)O)c3)C2)cc1C(=O)O (stereo not drawn) [Compound 34]
18 | 0.0489 (≈ 0.0395 µg/mL) | O=C(O)c1cc(CN2CC(Oc3ccc(NS(=O)(=O)c4cnc(-c5ccc(F)cc5)o4)c(C(=O)O)c3)C2)ccc1NS(=O)(=O)c1cnc(-c2ccc(F)cc2)o1 [Compound 120]
19 | 0.0489 (≈ 0.041 µg/mL) | O=C(O)c1cc(CN2CC(Oc3ccc(NS(=O)(=O)c4cnn(-c5ccc(Cl)cc5)c4)c(C(=O)O)c3)C2)ccc1NS(=O)(=O)c1cnn(-c2ccc(Cl)cc2)c1 [Compound 117]
20 | 0.0489 (≈ 0.0374 µg/mL) | O=C(CCc1ccc(Cl)cc1)Nc1ccc(OC2CN(Cc3ccc(NS(=O)(=O)c4cnn(-c5ccc(Cl)cc5)c4)c(C(=O)O)c3)C2)cc1C(=O)O [Compound 65, 5-((1-(3-carboxy-4-((1-(4-chlorophenyl)-1H-pyrazole)-4-sulfonamido)-benzyl)azetidin-3-yl)oxy)-2-(3-(4-chlorophenyl)propanamido)benzoic acid]
21 | 0.0245 (≈ 0.0198 µg/mL) | O=C(O)c1cc(CN2CC(Oc3ccc(NS(=O)(=O)c4cnn(-c5ccc(F)cc5)n4)c(C(=O)O)c3)C2)ccc1NS(=O)(=O)c1cnn(-c2ccc(F)cc2)n1 [Compound 118]
22 | 0.0245 (≈ 0.0209 µg/mL) | O=C(O)c1cc(COC2CC(OCc3ccc(NS(=O)(=O)c4ccc(-c5ccc(F)cc5)cc4)c(C(=O)O)c3)C2)ccc1NS(=O)(=O)c1ccc(-c2ccc(F)cc2)cc1 (stereo not drawn) [Compound 14]
23 | 0.0245 (≈ 0.0195 µg/mL) | O=C(NCc1ccc(Cl)cc1)C(=O)Nc1ccc(OC2CN(Cc3ccc(NS(=O)(=O)c4cc(-c5ccc(F)cc5)ns4)c(C(=O)O)c3)C2)cc1C(=O)O [Compound 59]

same assay, conditions: lowest concentration giving >95% growth inhibition, CAMHB, 18-22 h

Row | SMILES | MIC [µM]
24 | O=C(O)c1cc(OC2CN(Cc3ccc(NS(=O)(=O)c4ccc(-c5ccc(Cl)cc5)cc4)c(C(=O)O)c3)C2)ccc1NS(=O)(=O)CCc1ccc(F)cc1 [Compound 81, 5-((3-(3-carboxy-4-((2-(4-fluorophenyl)ethyl)sulfonamido)phenoxy)azetidin-1-yl)methyl)-2-((4′-chloro-[1, l′-biphenyl])-4-sulfonamido)benzoic acid] | 0.0122 (≈ 0.00969 µg/mL)
